# Laboratory results reported in PMC6272914, “Bio-Guided Isolation of Methanol-Soluble Metabolites of Common Spruce (Picea abies) Bark by-Products and Investigation of Their Dermo-Cosmetic Properties” (Molecules, 2016).
# Molecular target: collagenase from Clostridium histolyticum
# Experiment: fluorogenic MMP2 substrate collagenase inhibition assay
# Assay type: biochemical, Hathewaya histolytica
row,Compound,IC50 [µM]
1,"CC(C)C[C@H](NP(=O)(O)O[C@@H]1O[C@@H](C)[C@H](O)[C@@H](O)[C@H]1O)C(=O)N[C@@H](Cc1c[nH]c2ccccc12)C(=O)O [PRMD, phosphoramidon, reference compound]",6.9
2,"O=C1c2c(O)cc(O)cc2O[C@H](c2ccc(O)c(O)c2)[C@H]1O [compound 4, taxifolin]",193
3,"OC[C@H]1O[C@@H](Oc2cc(O)cc(/C=C/c3ccc(O)cc3)c2)[C@H](O)[C@@H](O)[C@@H]1O [compound 6, E-piceid]",259
4,"OC[C@H]1O[C@@H](Oc2cc(O)cc(/C=C/c3ccc(O)c(O)c3)c2)[C@H](O)[C@@H](O)[C@@H]1O [compound 8, E-astringin]",125
5,"O=C1c2c(O)cc(O)cc2O[C@H](c2ccc(O)c(O[C@@H]3O[C@H](CO)[C@@H](O)[C@H](O)[C@H]3O)c2)[C@H]1O [compound 9, taxifolin-3′-O-glucoside]",141
